{
  "source": "BigSolDB 2.1",
  "data": [
    {"smiles": "O=P(NCc1ccccc1)(Oc1ccccc1)Oc1ccccc1", "values": [
      {"measurement": "solubility (mole fraction)", "setting": "in THF, 293.15 K", "value": 0.0978},
      {"measurement": "solubility (mole fraction)", "setting": "in THF, 298.15 K", "value": 0.115},
      {"measurement": "solubility (mole fraction)", "setting": "in THF, 303.15 K", "value": 0.132},
      {"measurement": "solubility (mole fraction)", "setting": "in THF, 308.15 K", "value": 0.157},
      {"measurement": "solubility (mole fraction)", "setting": "in THF, 313.15 K", "value": 0.183},
      {"measurement": "solubility (mole fraction)", "setting": "in THF, 318.15 K", "value": 0.208},
      {"measurement": "solubility (mole fraction)", "setting": "in THF, 323.15 K", "value": 0.24},
      {"measurement": "solubility (mole fraction)", "setting": "in acetone, 293.15 K", "value": 0.0447},
      {"measurement": "solubility (mole fraction)", "setting": "in acetone, 298.15 K", "value": 0.0587},
      {"measurement": "solubility (mole fraction)", "setting": "in acetone, 303.15 K", "value": 0.0741},
      {"measurement": "solubility (mole fraction)", "setting": "in acetone, 308.15 K", "value": 0.0986},
      {"measurement": "solubility (mole fraction)", "setting": "in acetone, 313.15 K", "value": 0.122},
      {"measurement": "solubility (mole fraction)", "setting": "in acetone, 318.15 K", "value": 0.154},
      {"measurement": "solubility (mole fraction)", "setting": "in acetone, 323.15 K", "value": 0.198},
      {"measurement": "solubility (mole fraction)", "setting": "in acetonitrile, 293.15 K", "value": 0.0148},
      {"measurement": "solubility (mole fraction)", "setting": "in acetonitrile, 298.15 K", "value": 0.0196},
      {"measurement": "solubility (mole fraction)", "setting": "in acetonitrile, 303.15 K", "value": 0.0264},
      {"measurement": "solubility (mole fraction)", "setting": "in acetonitrile, 308.15 K", "value": 0.0344},
      {"measurement": "solubility (mole fraction)", "setting": "in acetonitrile, 313.15 K", "value": 0.0431},
      {"measurement": "solubility (mole fraction)", "setting": "in acetonitrile, 318.15 K", "value": 0.0591},
      {"measurement": "solubility (mole fraction)", "setting": "in acetonitrile, 323.15 K", "value": 0.0742},
      {"measurement": "solubility (mole fraction)", "setting": "in acetonitrile, 328.15 K", "value": 0.0948},
      {"measurement": "solubility (mole fraction)", "setting": "in acetonitrile, 333.15 K", "value": 0.122},
      {"measurement": "solubility (mole fraction)", "setting": "in acetonitrile, 338.15 K", "value": 0.155},
      {"measurement": "solubility (mole fraction)", "setting": "in chloroform, 288.15 K", "value": 0.095},
      {"measurement": "solubility (mole fraction)", "setting": "in chloroform, 293.15 K", "value": 0.109},
      {"measurement": "solubility (mole fraction)", "setting": "in chloroform, 298.15 K", "value": 0.126},
      {"measurement": "solubility (mole fraction)", "setting": "in chloroform, 303.15 K", "value": 0.143},
      {"measurement": "solubility (mole fraction)", "setting": "in chloroform, 308.15 K", "value": 0.164},
      {"measurement": "solubility (mole fraction)", "setting": "in chloroform, 313.15 K", "value": 0.191},
      {"measurement": "solubility (mole fraction)", "setting": "in chloroform, 318.15 K", "value": 0.218},
      {"measurement": "solubility (mole fraction)", "setting": "in chloroform, 323.15 K", "value": 0.248},
      {"measurement": "solubility (mole fraction)", "setting": "in chloroform, 328.15 K", "value": 0.275},
      {"measurement": "solubility (mole fraction)", "setting": "in dichloromethane, 288.15 K", "value": 0.055},
      {"measurement": "solubility (mole fraction)", "setting": "in dichloromethane, 293.15 K", "value": 0.0724},
      {"measurement": "solubility (mole fraction)", "setting": "in dichloromethane, 298.15 K", "value": 0.0965},
      {"measurement": "solubility (mole fraction)", "setting": "in dichloromethane, 303.15 K", "value": 0.126},
      {"measurement": "solubility (mole fraction)", "setting": "in dichloromethane, 308.15 K", "value": 0.157},
      {"measurement": "solubility (mole fraction)", "setting": "in ethyl acetate, 293.15 K", "value": 0.0199},
      {"measurement": "solubility (mole fraction)", "setting": "in ethyl acetate, 298.15 K", "value": 0.0279},
      {"measurement": "solubility (mole fraction)", "setting": "in ethyl acetate, 303.15 K", "value": 0.0368},
      {"measurement": "solubility (mole fraction)", "setting": "in ethyl acetate, 308.15 K", "value": 0.0484},
      {"measurement": "solubility (mole fraction)", "setting": "in ethyl acetate, 313.15 K", "value": 0.0627},
      {"measurement": "solubility (mole fraction)", "setting": "in ethyl acetate, 318.15 K", "value": 0.0824},
      {"measurement": "solubility (mole fraction)", "setting": "in ethyl acetate, 323.15 K", "value": 0.104},
      {"measurement": "solubility (mole fraction)", "setting": "in ethyl acetate, 328.15 K", "value": 0.137},
      {"measurement": "solubility (mole fraction)", "setting": "in ethyl acetate, 333.15 K", "value": 0.182},
      {"measurement": "solubility (mole fraction)", "setting": "in methanol, 293.15 K", "value": 0.0111},
      {"measurement": "solubility (mole fraction)", "setting": "in methanol, 298.15 K", "value": 0.0158},
      {"measurement": "solubility (mole fraction)", "setting": "in methanol, 303.15 K", "value": 0.0231},
      {"measurement": "solubility (mole fraction)", "setting": "in methanol, 308.15 K", "value": 0.0322},
      {"measurement": "solubility (mole fraction)", "setting": "in methanol, 313.15 K", "value": 0.0449},
      {"measurement": "solubility (mole fraction)", "setting": "in methanol, 318.15 K", "value": 0.0629},
      {"measurement": "solubility (mole fraction)", "setting": "in methanol, 323.15 K", "value": 0.0875},
      {"measurement": "solubility (mole fraction)", "setting": "in methanol, 328.15 K", "value": 0.125},
      {"measurement": "solubility (mole fraction)", "setting": "in methanol, 333.15 K", "value": 0.166},
      {"measurement": "solubility (mole fraction)", "setting": "in methyl acetate, 288.15 K", "value": 0.0168},
      {"measurement": "solubility (mole fraction)", "setting": "in methyl acetate, 293.15 K", "value": 0.0234},
      {"measurement": "solubility (mole fraction)", "setting": "in methyl acetate, 298.15 K", "value": 0.0309},
      {"measurement": "solubility (mole fraction)", "setting": "in methyl acetate, 303.15 K", "value": 0.0407},
      {"measurement": "solubility (mole fraction)", "setting": "in methyl acetate, 308.15 K", "value": 0.055},
      {"measurement": "solubility (mole fraction)", "setting": "in methyl acetate, 313.15 K", "value": 0.0699},
      {"measurement": "solubility (mole fraction)", "setting": "in methyl acetate, 318.15 K", "value": 0.094},
      {"measurement": "solubility (mole fraction)", "setting": "in methyl acetate, 323.15 K", "value": 0.122},
      {"measurement": "solubility (mole fraction)", "setting": "in toluene, 293.15 K", "value": 0.0109},
      {"measurement": "solubility (mole fraction)", "setting": "in toluene, 298.15 K", "value": 0.016},
      {"measurement": "solubility (mole fraction)", "setting": "in toluene, 303.15 K", "value": 0.0228},
      {"measurement": "solubility (mole fraction)", "setting": "in toluene, 308.15 K", "value": 0.0312},
      {"measurement": "solubility (mole fraction)", "setting": "in toluene, 313.15 K", "value": 0.0428},
      {"measurement": "solubility (mole fraction)", "setting": "in toluene, 318.15 K", "value": 0.0574},
      {"measurement": "solubility (mole fraction)", "setting": "in toluene, 323.15 K", "value": 0.0814},
      {"measurement": "solubility (mole fraction)", "setting": "in toluene, 328.15 K", "value": 0.108},
      {"measurement": "solubility (mole fraction)", "setting": "in toluene, 333.15 K", "value": 0.146},
      {"measurement": "solubility (mole fraction)", "setting": "in toluene, 338.15 K", "value": 0.187},
      {"measurement": "solubility (mole fraction)", "setting": "in toluene, 343.15 K", "value": 0.243}
    ]}
  ]
}
